Experimental data reported in paper PMC8773446, “Comparative Analysis of Three Trypanosomatid Catalases of Different Origin” (Antioxidants, 2021).
pIC50: −log10 of the molar value.

Assays:
Details in all cases: 15 mM H2O2, 50 mM potassium phosphate pH 7, 1 min preincubation; read-out: 3-AT IC50
[1] = target: Blastocrithidia sp. catalase; type: biochemical
Experimental: (§1) The enzymatic inhibition was measured with 15 mM H2O2 and 50 mM potassium phosphate, pH 7. The enzyme was incubated with different concentrations of inhibitors (KCN or 3-amino-1,2,4-triazole, hereafter denoted as 3-AT, both from MilliporeSigma) for one minute, then the substrate was added and the residual activity was measured at 240 nm for 2 min [56]. All measurements were performed in triplicate.

[2] = target: V. ingenoplastis catalase; type: biochemical, Vickermania ingenoplastis
Experimental: as §1

L. pyrrhocoris catalase = L. pyrrhocoris catalase (Leptomonas pyrrhocoris, UniProt A0A0M9FX30); test: biochemical
Experimental: as §1

Chain of L. pyrrhocoris catalase (A0A0M9FX30 entry or part of it): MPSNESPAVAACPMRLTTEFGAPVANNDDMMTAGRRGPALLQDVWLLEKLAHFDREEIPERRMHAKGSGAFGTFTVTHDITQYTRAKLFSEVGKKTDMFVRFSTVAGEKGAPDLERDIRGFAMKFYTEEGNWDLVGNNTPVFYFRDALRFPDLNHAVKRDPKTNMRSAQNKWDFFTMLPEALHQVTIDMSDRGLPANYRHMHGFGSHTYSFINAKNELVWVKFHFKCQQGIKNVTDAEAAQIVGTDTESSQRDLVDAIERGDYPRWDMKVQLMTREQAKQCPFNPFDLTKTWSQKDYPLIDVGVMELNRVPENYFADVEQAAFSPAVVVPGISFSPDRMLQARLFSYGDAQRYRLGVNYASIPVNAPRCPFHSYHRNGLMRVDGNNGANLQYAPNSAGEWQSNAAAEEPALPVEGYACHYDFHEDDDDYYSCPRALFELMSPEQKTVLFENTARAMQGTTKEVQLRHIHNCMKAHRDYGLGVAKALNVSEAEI

Nc1nc[nH]n1 [3-AT, 3-amino-1,2,4-triazole]
pIC50 [1]: 1.81
pIC50 [2]: 1.94
pIC50 (L. pyrrhocoris catalase): 1.98
